Experimental data as given in ChEMBL document CHEMBL2157938, “Use of structure based design to increase selectivity of pyridyl-cinnoline phosphodiesterase 10A (PDE10A) inhibitors against phosphodiesterase 3 (PDE3)” (Bioorg Med Chem Lett, 2012).

Assays:
[1] = Inhibition of mouse PDE10A7 using fluorescein labeled CAMP as substrate incubated for 30 mins prior to substrate addition measured after 30 mins by fluorescence polarization assay
[2] = Clearance in rat liver microsomes; type: ADME, Microsome; conditions: read-out: CLH
[3] = Selectivity ratio of IC50 for PDE3 to IC50 for mouse PDE10A7
[4] = Inhibition of PDE3
[5] = Oral bioavailability in rat at 5 mg/kg; type: ADME, organism-based; conditions: in vivo
[6] = Half life in rat at 1 mg/kg, iv and 5 mg/kg, po; type: ADME, organism-based; conditions: in vivo
[7] = Clearance in rat at 1 mg/kg, iv and 5 mg/kg, po; type: ADME, organism-based; conditions: in vivo

| IC50 [1] | microsomal CLint [2] | Ratio IC50 [3] | IC50 [4] | bioavailability [5] | half-life [6] | clearance [7] | SMILES |
| --- | --- | --- | --- | --- | --- | --- | --- |
| 7.6 nM |  |  |  |  |  |  | COc1cc2nncc(-c3ccc(NC(C)C)nc3)c2cc1OC |
| 11.9 nM | 57 µL/min/mg |  |  |  |  |  | COc1cc2nccc(-c3cnc(N4CCC(C(C)(C)O)CC4)c(C)c3)c2cc1OC |
| 47 nM |  |  |  |  |  |  | COc1cc2ccnc(-c3ccc(NC(C)C)nc3)c2cc1OC |
| 68.6 nM |  | 231 | 15900 nM |  |  |  | COc1cc2c(-c3cnc(N4CCC(C(C)(C)O)CC4)c(C)c3)cnnc2cc1OC(F)F |
| 4500 nM |  |  | > 10000 nM |  |  |  | COc1cc2nncc(-c3cnc(N4CCC(C(C)(C)O)CC4)c(C)c3)c2cc1N(C)C |
|  |  | 347 | 1700 nM | 60% | 1.54 h |  | COc1cc2nncc(-c3cnc(N4CCC(C(C)(C)O)CC4)c(C)c3)c2cc1OC |
| 19.1 nM |  | > 523 | > 10000 nM |  |  |  | COc1cc2c(-c3cnc(N4CCC(C(C)(C)O)CC4)c(C)c3)cnnc2cc1OCC1CC1 |
| 6.3 nM |  | 357 | 2250 nM |  |  |  | COc1cc2nncc(-c3cnc(N4CCC(C(C)(C)O)CC4)c(Cl)c3)c2cc1OC |
| 4.1 nM |  | 4360 | 17900 nM | 32% | 1.48 h | 15.5 mL/min/kg | COc1cc2nncc(-c3cnc(N4CCC(C(C)(C)O)CC4)c(C)c3)c2cc1OC1CC1 |
| 40.9 nM |  | > 244 | > 10000 nM |  |  |  | CCOc1cc2c(-c3cnc(N4CCC(C(C)(C)O)CC4)c(C)c3)cnnc2cc1C |
| 13.8 nM | 50 µL/min/mg |  |  |  |  |  | CCn1cc(-c2cnc(N3CCC(C(C)(C)O)CC3)c(C)c2)c2cc(OC)c(OC)cc2c1=O |
| 132 nM |  | > 75 | > 10000 nM |  |  |  | COc1cc2c(-c3cnc(N4CCC(C(C)(C)O)CC4)c(C)c3)cnnc2cc1F |
| 1.2 nM |  | 5520 | 6630 nM | 46% | 2.08 h |  | COc1cc2nncc(-c3cnc(N4CCC(C(C)(C)O)CC4)c(C(F)F)c3)c2cc1OC |
| 25.6 nM |  | 980 | 25100 nM |  |  |  | COc1cc2nncc(-c3cnc(N4CCC(C(C)(C)O)CC4)c(C)c3)c2cc1C |
| 13.4 nM | 69 µL/min/mg |  |  |  |  |  | COc1cc2cncc(-c3cnc(N4CCC(C(C)(C)O)CC4)c(C)c3)c2cc1OC |
| 1.3 nM |  | 2290 | 2980 nM |  |  |  | COc1cc2nncc(-c3cnc(N4CCC(C(C)(C)O)CC4)c(C4CC4)c3)c2cc1OC |
| 1090 nM |  |  |  |  |  |  | COc1cc2snc(-c3ccc(NC(C)C)nc3)c2cc1OC |
